Key:
[1] = tested on: melanotic melanoma B16 tumor; assay: Melanotic Melanoma B16 test; type: in vivo, BDF1 mice; details: for Median Survival: BDF1 mice; for T/C × 100 (%): ratio of survival time treated/control
Description: The animals used were BDFl mice, all of the same sex, weighing a minimum of 17 g and all within a 3 g weight range. There were 12 animals per test group. A 1 g portion of melanotic melanoma B16 tumor was homogenized in 10 ml of cold balanced salt solution and a 0.5 ml aliquot of the homogenate was implanted intraperitoneally into each of the test mice. The test compounds were administered intraperitoneally on days 1, 5 and 9 (relative to tumor inoculation) at various doses. The animals were weighed and survivors recorded on a regular basis for 60 days. The median survival time and ratio of survival time for treated (T)/control (C) animals were calculated. The positive control compound was 1,4-bis[(2-aminoethyl)amino]-5,8-dihydroxyanthraquinone, dihydrochloride (U.S. patent application Ser. No. 87,354, filed Oct. 23, 1979).

[2] = tested on: lymphocytic leukemia P388; assay: Lymphocytic Leukemia P388 Test; type: in vivo, BDF1 mice; details: for Median Survival: BDF1 mice
Summary of the method: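 BDF1 mice (5–6 per group) were inoculated i.p. with 10^6 P388 cells, then dosed i.p. on days 1, 5 and 9 at various doses. Survival was followed for 60 days, and median survival time and the treated/control (T/C) survival ratio were calculated.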

[3] = dose 0.75 mg/kg intraperitoneally on days 1, 5 and 9
[4] = dose 1.5 mg/kg intraperitoneally on days 1, 5 and 9
[5] = dose 3 mg/kg intraperitoneally on days 1, 5 and 9

**Q.** Which results are given for `Cl.Cl.NCC(=O)NCCNc1ccc(NCCNC(=O)CN)c2c1C(=O)c1c(O)ccc(O)c1C2=O` [Example 19, N,N'-[(9,10-Dihydro-5,8-dihydroxy-9,10-dioxo-1,4-anthracenediyl)bis(imino-2,1-ethanediyl)]bis[2-amino-acetamide], dihydrochloride]?
**A.** Median Survival [1, 3]: 27.5 days; T/C × 100 (%) [1, 3]: 162%; Median Survival [1, 4]: 28.0 days; T/C × 100 (%) [1, 4]: 165%; Median Survival [1, 5]: 37.0 days; T/C × 100 (%) [1, 5]: 218%; response vs control in vivo at 0.75 mg/kg ([2]; Mus musculus, P388, ip, dose 0.75 mg/kg intraperitoneally on days 1, 5 and 9, ratio of survival time treated/control, read-out: T/C × 100 (%)): 183%; response vs control in vivo at 1.5 mg/kg ([2]; Mus musculus, P388, ip, dose 1.5 mg/kg intraperitoneally on days 1, 5 and 9, ratio of survival time treated/control, read-out: T/C × 100 (%)): 200%; response vs control in vivo at 3 mg/kg ([2]; Mus musculus, P388, ip, dose 3 mg/kg intraperitoneally on days 1, 5 and 9, ratio of survival time treated/control, read-out: T/C × 100 (%)): 288%; Median Survival [2, 3]: 22.0 days; Median Survival [2, 4]: 24.0 days; Median Survival [2, 5]: 34.5 days

— patent US4732970A, “Antitumor amino acid and peptide derivatives of 1,4-bis(aminoalkyl and hydroxy-aminoalkyl)amino)-5,8-dihydroxyanthraquinones” (priority 1986, dated 1988)
